According to ChEMBL document CHEMBL4476874, “Compounds for the modulation of myc activity” (2018):

Molecular target: Myc proto-oncogene protein (Homo sapiens, UniProt P01106)
Assay: Inhibition of human c-Myc assessed as reduction in c-Myc/Max/Ebox DNA complex formation using pre-formed complex of c-Myc and biotinylated DNA containing single Ebox-sequence followed by compound addition and further addition of his6-tagged c-Max and incubated for 2 hrs by AlphaScreen assay

Sequence of Myc proto-oncogene protein (P01106 whole entry): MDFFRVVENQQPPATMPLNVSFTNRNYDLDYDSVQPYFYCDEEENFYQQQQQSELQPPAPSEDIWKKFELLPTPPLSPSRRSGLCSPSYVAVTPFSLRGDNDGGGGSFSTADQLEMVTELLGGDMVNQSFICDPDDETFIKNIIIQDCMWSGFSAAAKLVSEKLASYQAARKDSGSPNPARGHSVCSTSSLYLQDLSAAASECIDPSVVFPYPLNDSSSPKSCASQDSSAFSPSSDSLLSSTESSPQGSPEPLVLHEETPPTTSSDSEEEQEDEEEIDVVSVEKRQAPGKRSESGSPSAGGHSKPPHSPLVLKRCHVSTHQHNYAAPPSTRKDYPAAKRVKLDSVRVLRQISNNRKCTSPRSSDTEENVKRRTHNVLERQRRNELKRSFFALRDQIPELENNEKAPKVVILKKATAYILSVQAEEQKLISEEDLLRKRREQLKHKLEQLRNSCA

SMILES	IC50 [µM]
CC(=O)Nc1ccc(-c2ccc3sc(-c4c(NC(=O)CCNC(C)C)sc5c4CCNC5)nc3c2)cc1	0.3 to 1
COCCNCCC(=O)Nc1sc2c(c1-c1nc3ccc(-c4c(C)n[nH]c4C)cc3s1)CCNC2	> 10
COCCNCCC(=O)Nc1sc2c(c1-c1nc3ccc(-c4ccccc4NC(C)=O)cc3s1)CCNC2	> 10
COCCNCCC(=O)Nc1sc2c(c1-c1nc3ccc(-c4cccc(C(F)(F)F)c4)cc3s1)CCNC2	> 10
O=C(Nc1sc2c(c1-c1nc3ccccc3s1)CCNC2)C1CNC1	< 0.3
COCCNCCC(=O)Nc1sc2c(c1-c1nc3cc(-c4ccc(S(=O)(=O)NC5CC5)cc4)ccc3s1)CCNC2	> 10
COCCNCCC(=O)Nc1sc2c(c1-c1nc3cc(-c4cccc(C(F)(F)F)c4)ccc3s1)CCNC2	> 10
COCCNCCC(=O)Nc1sc2c(c1-c1nc3ccc(-c4cncc(C#N)c4)cc3s1)CCNC2	1 to 10
COCCNCCC(=O)Nc1sc2c(c1-c1nc3ccc(-c4ccc(S(=O)(=O)NC5CC5)cc4)cc3s1)CCNC2	> 10
CNS(=O)(=O)c1ccccc1-c1ccc2sc(-c3c(NC(=O)CCNCCOC)sc4c3CCNC4)nc2c1	> 10
COCCNCCC(=O)Nc1sc2c(c1-c1nc3ccc(-c4cnc(OC)c(OC)c4)cc3s1)CCNC2	1 to 10
CC(C)NCCC(=O)Nc1sc2c(c1-c1nc3c(NC(=O)c4ccccc4)cccc3s1)CCNC2	1 to 10
COCCNCCC(=O)Nc1sc2c(c1-c1nc3cc(-c4ccc(N5CCNCC5)nc4)ccc3s1)CCNC2	< 0.3
CC(C)NCCC(=O)Nc1sc2c(c1-c1nc3cc(-c4ccccc4)ccc3s1)CCNC2	0.3 to 1
CC(C)NCCC(=O)Nc1sc2c(c1-c1nc3cc(C#N)ccc3s1)CCNC2	< 0.3
COCCNCCC(=O)Nc1sc2c(c1-c1nc3cc(-c4ccccc4NC(C)=O)ccc3s1)CCNC2	> 10
COCCNCCC(=O)Nc1sc2c(c1-c1nc3cc(-c4ccc5cnn(C)c5c4)ccc3s1)CCNC2	0.3 to 1
COCCNCCC(=O)Nc1sc2c(c1-c1nc3ccc(-c4ccc5ncnn5c4)cc3s1)CCNC2	1 to 10
COCCNCCC(=O)Nc1sc2c(c1-c1nc3ccc(-c4ccc(OC)c(OC)c4)cc3s1)CCNC2	> 10
COCCNCCC(=O)Nc1sc2c(c1-c1nc3ccc(-c4cc(F)cnc4OC)cc3s1)CCNC2	> 10
COCCNCCC(=O)Nc1sc2c(c1-c1nc3ccc(-c4ccccc4NS(C)(=O)=O)cc3s1)CCNC2	> 10
COCCNCCC(=O)Nc1sc2c(c1-c1nc3cc(-c4cc5cccc(OC)c5[nH]4)ccc3s1)CCNC2	1 to 10

SMILES	IC50 [µM]
COCCNCCC(=O)Nc1sc2c(c1-c1nc3cc(-c4cccc(C(=O)N5CCN(C)CC5)c4)ccc3s1)CCNC2	1 to 10
COCCNCCC(=O)Nc1sc2c(c1-c1nc3ccc(-c4cc5ccccc5[nH]4)cc3s1)CCNC2	> 10
CNS(=O)(=O)c1ccccc1-c1ccc2nc(-c3c(NC(=O)CCNCCOC)sc4c3CCNC4)sc2c1	> 10
O=C(CC1CCCN1)Nc1sc2c(c1-c1nc3ccccc3s1)CCNC2 (centres undefined)	0.3 to 1
COCCNCCC(=O)Nc1sc2c(c1-c1nc3ccc(-c4ccccc4S(C)(=O)=O)cc3s1)CCNC2	> 10
COCCNCCC(=O)Nc1sc2c(c1-c1nc3ccc(-c4cnn(Cc5ccccc5)c4)cc3s1)CCNC2	1 to 10
COCCNCCC(=O)Nc1sc2c(c1-c1nc3cc(-c4ccc5c(=O)[nH]ccc5c4)ccc3s1)CCNC2	> 10
COCCNCCC(=O)Nc1sc2c(c1-c1nc3ccc(-c4ccc(C(F)(F)F)nc4)cc3s1)CCNC2	> 10
COCCNCCC(=O)Nc1sc2c(c1-c1nc3ccc(-c4ccc5c(c4)NC(=O)C5)cc3s1)CCNC2	1 to 10
COCCNCCC(=O)Nc1sc2c(c1-c1nc3ccc(-c4ccc(N5CCOCC5)nc4)cc3s1)CCNC2	> 10
Cc1cc(C)c(CNCCC(=O)Nc2sc3c(c2-c2nc4ccccc4s2)CCN(C(C)C)C3)c(=O)[nH]1	1 to 10
COCCNCCC(=O)Nc1sc2c(c1-c1nc3cc(-c4cccc5cccnc45)ccc3s1)CCNC2	> 10
COCCNCCC(=O)Nc1sc2c(c1-c1nc3cc(-c4c(C)n[nH]c4C)ccc3s1)CCNC2	1 to 10
CC(C)N1CCc2c(sc(NC(=O)CCNc3cccnc3)c2-c2nc3ccccc3s2)C1	1 to 10
COCCNCCC(=O)Nc1sc2c(c1-c1nc3cc(-c4ccccc4)ccc3s1)CCNC2	1 to 10
COCCNCCC(=O)Nc1sc2c(c1-c1nc3cc(-c4cnc(OC)c(OC)c4)ccc3s1)CCNC2	1 to 10
CCOc1ccc(-c2ccc3nc(-c4c(NC(=O)CCNCCOC)sc5c4CCNC5)sc3c2)cn1	1 to 10
COCCNCCC(=O)Nc1sc2c(c1-c1nc3ccc(-c4c(C)nn(C)c4C)cc3s1)CCNC2	> 10
COCCNCCC(=O)Nc1sc2c(c1-c1nc3ccc(-c4cnc(OC)nc4)cc3s1)CCNC2	1 to 10
COCCNCCC(=O)Nc1sc2c(c1-c1nc3cc(-c4ccc(OC)nc4C)ccc3s1)CCNC2	> 10
COCCNCCC(=O)Nc1sc2c(c1-c1nc3c(C)cccc3o1)CCNC2	0.3 to 1
COCCNCCC(=O)Nc1sc2c(c1-c1nc3ccc(-c4cncc(OC)c4)cc3s1)CCNC2	1 to 10
